In paper PMC6941952, “A homogeneous bioluminescent immunoassay to probe cellular signaling pathway regulation” (Communications Biology, 2020):
“And” between values parts separate entries of the source, which are not always exact repeats. Equal entries are not always repeated.

System: phospho-IκBα (Ser32)
Assay: NanoBiT cell-based immunoassay, phosphorylated IκBα in human breast tumor epithelial cells
Conditions: for P-IkB Average: background subtracted; for P-IkB Raw data / P-IkB Subtract reagent background: listed as TNF
Description: All cell lines used are from ATCC. […] Human Primary Mammary Epithelial Cells (#H-6035), Human Breast Tumor Epithelial Cells (#HC-6035), Complete Human Epithelial Cell Medium (#H6621), and Gelatin-Based Coating Solution (#H6950) were purchased from Cell Biologics. The cells were cultured according to the manufacturer’s procedure. All cells were grown at 37 °C in a 5% CO2 humidified incubator and passaged before reaching 80% cell confluency. Prior to each experiment, cells were counted by combining 30 µl of cell suspension with 30 µl of trypan blue. After gentle pipetting up and down to mix the cells and the dye, the cell number was determined using Bio-Rad TC 20 cell counter.
Prior to NanoBiT Cell-Based Immunoassay, 50,000 cells were seeded in 160 µl of complete growth media per well of a 96-well plate and incubated overnight. The cells were checked under microscope and it was determined that 50,000 cells per well in 96-well plate is under 90% confluency for all cells tested. If necessary, the cell culture media were replaced with serum-free media after the cells were stably adherent on the plate and incubated overnight. To treat cells with activators or inhibitors, medium was changed to 30 µl of medium containing inhibitors. If activation of a specific pathway is needed, the cells were stimulated with 10 µl of medium containing activators. To lyse the cells, 10 µl of lysis buffer containing 0.1% digitonin diluted in 1X immunoassay buffer with protease and phosphatase inhibitors was added and the plates were mixed vigorously for 20 min. Then, 50 µl of an antibody mix containing two primary antibodies against the target protein and NanoBiT detecting antibodies (0.3 µl each per well), diluted in 1X immunoassay buffer was added to the lysates. The plates were incubated at 23 °C for 90 min, followed by the addition of 25 µl of Nano-Glo® reagent consisting of Nano-Glo® Luciferase Assay Substrate mixed with 1X immunoassay buffer. Luminescence was measured using a plate-reading luminometer.
Single dose or dose response inhibitor treatments were performed prior to activation of the pathways as follows. For IκBα, the cells were treated in 30 µl medium with IKK16 or MG132 for 60 min before the addition of 10 µl of DMEM containing appropriate concentration of TNFα. To measure phosphorylation of AKT or STAT3, the corresponding NanoBiT immunoassays were developed with MCF-7 or A431 cells, respectively, according the same scheme used to develop the IκBα assay using the primary antibodies for AKT and STAT3 described in the reagents section. For the AKT assay, MCF-7 cells were incubated overnight in phenol-red free DMEM medium (Gibco #21063-029) without serum. Treatment with LY294002 was performed in 30 µl medium and cells were incubated for 60 min before the addition of 1 µM Insulin. To measure STAT3 phosphorylation, A431 cells were incubated overnight in DMEM medium without serum. […] After addition of the stimulators, the cells were incubated for additional times as follows. IκBα phosphorylation and degradation analyses required both time courses and single time points as described in figures. […] The NanoBiT immunoassay protocol was followed as described above.
All 96-well assay plates were read using a GloMax® 96 Microplate Luminometer from Promega. The instrument was set to 0.5 s integration time. In order to obtain net change of signal, the reagent background values (signal from the well containing all reagent except primary antibodies) were subtracted from the sample values. To plot and analyze the data, Microsoft Excel and GraphPad Prism® Software were used. IC50 values were determined by using a nonlinear regression fit to a sigmoidal dose response (variable slope).

TNFα
P-IkB Average (TNF 2 min): 10421
P-IkB Raw data (TNF 2 min): 19130 and 19610 and 19580
P-IkB Subtract reagent background (TNF 2 min): 10591 and 10561 and 10111
P-IkB Average (TNF 4 min): 13121
P-IkB Raw data (TNF 4 min): 21660 and 22370 and 22390
P-IkB Subtract reagent background (TNF 4 min): 13351 and 13371 and 12641
P-IkB Average (TNF 6 min): 21828
P-IkB Raw data (TNF 6 min): 29170 and 32480 and 30890
P-IkB Subtract reagent background (TNF 6 min): 23461 and 21871 and 20151
P-IkB Average (TNF 8 min): 28528
P-IkB Raw data (TNF 8 min): 35450 and 39050 and 38140
P-IkB Subtract reagent background (TNF 8 min): 30031 and 29121 and 26431
P-IkB Average (TNF 10 min): 34158
P-IkB Raw data (TNF 10 min): 41810 and 44090 and 43630
P-IkB Subtract reagent background (TNF 10 min): 35071 and 34611 and 32791
P-IkB Average (TNF 12 min): 36728
P-IkB Raw data (TNF 12 min): 43840 and 47190 and 46210
P-IkB Subtract reagent background (TNF 12 min): 38171 and 37191 and 34821
P-IkB Average (TNF 15 min): 37461
P-IkB Raw data (TNF 15 min): 43590 and 48210 and 47640
P-IkB Subtract reagent background (TNF 15 min): 39191 and 38621 and 34571
P-IkB Average (TNF 30 min): 32864
P-IkB Raw data (TNF 30 min): 39720 and 43050 and 42880
P-IkB Subtract reagent background (TNF 30 min): 34031 and 33861 and 30701
P-IkB Average (TNF 45 min): 30164
P-IkB Raw data (TNF 45 min): 36730 and 40420 and 40400
P-IkB Subtract reagent background (TNF 45 min): 31401 and 31381 and 27711
P-IkB Average (TNF 60 min): 35274
P-IkB Raw data (TNF 60 min): 41100 and 46170 and 45610
P-IkB Subtract reagent background (TNF 60 min): 37151 and 36591 and 32081
